From ChEMBL document CHEMBL5321275, “Discovery, Optimization, and Evaluation of Novel N-(Benzimidazol-5-yl)-1,3,4-thiadiazol-2-amine Analogues as Potent STAT3 Inhibitors for Cancer Treatment” (J Med Chem, 2023)

Key:
[1] = Inhibition of IL-6/JAK/STAT3 signalling pathway in HEK-Blue IL-6 cells incubated for 16 hrs by QUANTI-blue assay; assay type: cell-based; details: Homo sapiens, HEK-Blue IL-6, 16 h
HEK-Blue IL-6 = assay: Inhibition of IL-6/JAK/STAT3 signalling pathway in HEK-Blue IL-6 cells at 10 uM incubated for 16 hrs by QUANTI-blue assay relative to control; assay type: cell-based; details: Homo sapiens
DU-145 [2] = assay: Antiproliferative activity against human DU-145 cells assessed as inhibition of cell growth at 10 uM measured after 96 hrs by MTT assay relative to control; assay type: functional
MDA-MB-231 [3] = assay: Antiproliferative activity against human MDA-MB-231 cells assessed as inhibition of cell growth measured after 96 hrs by MTT assay; assay type: functional, cell-based; details: MDA-MB-231, 96 h
MDA-MB-231 [4] = assay: Antiproliferative activity against human MDA-MB-231 cells assessed as inhibition of cell growth at 10 uM measured after 96 hrs by MTT assay relative to control; assay type: functional
DU-145 [5] = assay: Antiproliferative activity against human DU-145 cells assessed as inhibition of cell growth measured after 96 hrs by MTT assay; assay type: functional, cell-based; details: DU-145, 96 h

| Structure (SMILES) | IC50 [1] [µM] | IC50 (MDA-MB-231 [3]) [µM] | IC50 (DU-145 [5]) [µM] | inhibition (HEK-Blue IL-6) [%] | inhibition at 10 µM (DU-145 [2]) [%] | inhibition at 10 µM (MDA-MB-231 [4]) [%] |
| --- | --- | --- | --- | --- | --- | --- |
| CN1CCN(c2cc3c(cc2Nc2nnc(-c4ccccc4)s2)nc(-c2ccccc2F)n3C2CC2)CC1 | 7.56 |  |  | 63.3 |  |  |
| CCCn1c(-c2ccc(F)cc2)nc2cc(Nc3nnc(-c4cccc(F)c4)s3)c(N3CCN(C)CC3)cc21 | 1.96 | 3.33 | 4.34 | 85.3 | 78.9 | 94.7 |
| CN1CCN(c2cc3c(cc2Nc2nnc(-c4cccc(F)c4)s2)nc(-c2ccc(F)cc2)n3C2CC2)CC1 | 3.52 | 6.47 | 9.37 | 82.1 | 56.4 | 91.9 |
| CCCn1c(-c2ccc(F)cc2)nc2cc(Nc3nnc(-c4ccc(C(F)(F)F)cc4)s3)c(N3CCN(C)CC3)cc21 | 3.28 | 3.83 | 6.73 | 90.9 | 64.6 | 93.8 |
| CCCn1c(-c2cccc(F)c2)nc2cc(Nc3nnc(-c4ccccc4C(F)(F)F)s3)c(F)cc21 | > 10 |  |  | 46.2 |  |  |
| CN(C)CCn1c(-c2ccc(F)cc2)nc2cc(Nc3nnc(-c4ccccc4)s3)c(N3CCN(C)CC3)cc21 | > 10 |  |  | 2.11 |  |  |
| CC(C)n1c(-c2ccc(F)cc2)nc2cc(Nc3nnc(-c4ccccc4)s3)c(N3CCN(C)CC3)cc21 | 3.12 | > 10 | > 10 | 71.4 | -4.96 | 0.1 |
| CN1CCN(c2cc3c(cc2Nc2nnc(-c4ccccc4)s2)nc(-c2ccc(F)cc2)n3C2CCCC2)CC1 | 5.28 | > 10 | > 10 | 77.5 | -26.6 | -5.02 |
| Fc1ccc(-c2nc3cc(Nc4nnc(-c5ccc(C(F)(F)F)cc5)s4)c(N4CCOCC4)cc3n2C2CC2)cc1 | > 10 |  |  | 0.29 |  |  |
| CN1CCN(c2cc3c(cc2Nc2nnc(-c4cccnc4)s2)nc(-c2ccc(F)cc2)n3C2CC2)CC1 | > 10 |  |  | -0.36 |  |  |
| CN1CCN(c2cc3c(cc2Nc2nnc(-c4ccccc4)s2)nc(-c2cccnc2)n3C2CC2)CC1 | > 10 |  |  | 25.5 |  |  |
| CC(C)Cn1c(-c2ccc(F)cc2)nc2cc(Nc3nnc(-c4ccccc4)s3)c(N3CCN(C)CC3)cc21 | 3.92 | 8.55 | > 10 | 77.4 | 26.7 | 62.2 |
| CN1CCN(c2cc3c(cc2Nc2nnc(-c4ccccc4)s2)nc(-c2ccc(F)cc2)n3C2CCC2)CC1 | 6.27 |  |  | 64.7 |  |  |
| CN(C)C1CCN(c2cc3c(cc2Nc2nnc(-c4ccccc4)s2)nc(-c2ccc(F)cc2)n3C2CC2)CC1 | 3.29 | > 10 | > 10 | 69.2 | -2.92 | 19.5 |
| Fc1ccc(-c2nc3cc(Nc4nnc(-c5ccccc5)s4)ccc3n2C2CC2)cc1 | 5.79 |  |  | 66.1 |  |  |
| CN1CCN(c2cc3c(cc2Nc2nnc(-c4cccc(C#N)c4)s2)nc(-c2ccc(F)cc2)n3C2CC2)CC1 | 4.01 | 0.96 | 2.17 | 83.7 | 85.9 | 92.7 |
| CCCn1c(-c2cccc(F)c2)nc2cc(Nc3nnc(-c4ccc(C(F)(F)F)cc4)s3)c(F)cc21 | > 10 |  |  | 54.6 |  |  |
| Fc1ccc(-c2nc3cc(Nc4nnc(-c5ccc(C(F)(F)F)cc5)s4)ccc3n2C2CC2)cc1 | > 10 |  |  | 8.71 |  |  |
| CC(C)N1CCN(c2cc3c(cc2Nc2nnc(-c4ccccc4)s2)nc(-c2ccc(F)cc2)n3C2CC2)CC1 | 2.42 | 3.21 | 4.04 | 77.1 | 79.9 | 90.1 |
| CCCCCn1c(-c2ccc(F)cc2)nc2cc(Nc3nnc(-c4ccccc4)s3)c(N3CCN(C)CC3)cc21 | 3.96 | > 80 | > 10 | 83.2 | -8.3 | -7.99 |
| Fc1ccc(-c2nc3cc(Nc4nnc(-c5ccccc5)s4)c(N4CCN(c5ccccc5)CC4)cc3n2C2CC2)cc1 | > 10 |  |  | 21.3 |  |  |
| CCCn1c(-c2ccc(F)cc2)nc2cc(Nc3nnc(-c4ccccc4)s3)c(N3CCN(C)CC3)cc21 | 1.32 | 3.34 | 4.68 | 105 | 80.7 | 93.4 |
| CN1CCN(c2cc3c(cc2Nc2nnc(-c4ccccc4)s2)nc(-c2ccc(Cl)cc2)n3C2CC2)CC1 | 2.96 | > 10 | > 10 | 75.8 | -4.82 | 6.84 |
| COCCn1c(-c2ccc(F)cc2)nc2cc(Nc3nnc(-c4ccccc4)s3)c(N3CCN(C)CC3)cc21 | 6.42 |  |  | 65.4 |  |  |
| CC(C)(C)c1ccc(-c2nnc(Nc3cc4nc(-c5ccc(F)cc5)n(C5CC5)c4cc3F)s2)cc1 | > 10 |  |  | 36.1 |  |  |
| CN1CCN(c2cc3c(cc2Nc2nnc(-c4ccccc4)s2)nc(-c2cccc(F)c2)n3C2CC2)CC1 | 4.51 |  |  | 56.6 |  |  |

Now from value to compound, other results behind:

| IC50 [1] [µM] | IC50 (MDA-MB-231 [3]) [µM] | IC50 (DU-145 [5]) [µM] | Structure (SMILES) | inhibition (HEK-Blue IL-6) [%] | inhibition at 10 µM (DU-145 [2]) [%] | inhibition at 10 µM (MDA-MB-231 [4]) [%] |
| --- | --- | --- | --- | --- | --- | --- |
| 0.41 | > 10 | > 10 | Fc1cccc(-c2nc3cc(Nc4nnc(-c5cccc(C(F)(F)F)c5)s4)c(F)cc3n2C2CC2)c1 | 90 | -7.06 | 5.54 |
| 0.6 | > 10 | > 10 | Fc1ccc(-c2nc3cc(Nc4nnc(-c5ccccc5C(F)(F)F)s4)c(F)cc3n2C2CC2)cc1 | 99.9 | 14.7 | 3.62 |
| 4.84 | > 10 | > 10 | Fc1ccc(-c2nc3cc(Nc4nnc(-c5ccc(C(F)(F)F)cc5)s4)c(F)cc3n2C2CC2)cc1 | 64.1 | -25 | -2.76 |
| > 10 |  |  | Fc1cc2c(cc1Nc1nnc(-c3cccc(C(F)(F)F)c3)s1)nc(-c1ccc(C(F)(F)F)cc1)n2C1CC1 | 29.6 |  |  |
| > 10 |  |  | Fc1ccc(Oc2cc3c(cc2Nc2nnc(-c4cccc(C(F)(F)F)c4)s2)nc(-c2ccc(F)cc2)n3C2CC2)cc1 | 6.34 |  |  |
| > 10 |  |  | Fc1cc2c(cc1Nc1nnc(-c3cccc(C(F)(F)F)c3)s1)nc(-c1ccccc1)n2C1CC1 | 25.6 |  |  |
| 2.23 | 3.98 | 5.66 | CN1CCN(c2cc3c(cc2Nc2nnc(-c4cccc(C(F)(F)F)c4)s2)nc(-c2ccc(F)cc2)n3C2CC2)CC1 | 100 | 64.6 | 94.1 |
| > 10 |  |  | Fc1ccc(-c2nc3cc(Nc4nnc(-c5cccc(C(F)(F)F)c5)s4)ccc3n2C2CC2)cc1 | 34.5 |  |  |
| > 10 |  |  | CCCn1c(-c2cccc(F)c2)nc2cc(Nc3nnc(-c4cccc(C(F)(F)F)c4)s3)c(F)cc21 | 20.2 |  |  |
|  | > 10 | > 10 | Fc1ccc(-c2nc3cc(Nc4nnc(-c5cccc(C(F)(F)F)c5)s4)c(F)cc3n2C2CC2)cc1 |  | -3.68 | 8.11 |
| 3.92 |  |  | Fc1cc2c(cc1Nc1nnc(-c3ccccc3F)s1)nc(-c1ccccc1F)n2C1CC1 | 63.6 |  |  |
| > 10 |  |  | Fc1ccc(-c2nc3cc(Nc4nnc(-c5ccc(Cl)c(C(F)(F)F)c5)s4)c(F)cc3n2C2CC2)cc1 | 34.2 |  |  |
